# Source: patent US11427548B2 (Arvinas Operations, Inc., priority 2015, dated 2022)
# Read-outs that look alike come from different tables or passages of the source.
# Molecular target: T1, Androgen Receptor (Homo sapiens, UniProt P10275)
# T1 construct: endogenous in cells; host or cells: VCaP cells
# T1 sequence (P10275 1-920): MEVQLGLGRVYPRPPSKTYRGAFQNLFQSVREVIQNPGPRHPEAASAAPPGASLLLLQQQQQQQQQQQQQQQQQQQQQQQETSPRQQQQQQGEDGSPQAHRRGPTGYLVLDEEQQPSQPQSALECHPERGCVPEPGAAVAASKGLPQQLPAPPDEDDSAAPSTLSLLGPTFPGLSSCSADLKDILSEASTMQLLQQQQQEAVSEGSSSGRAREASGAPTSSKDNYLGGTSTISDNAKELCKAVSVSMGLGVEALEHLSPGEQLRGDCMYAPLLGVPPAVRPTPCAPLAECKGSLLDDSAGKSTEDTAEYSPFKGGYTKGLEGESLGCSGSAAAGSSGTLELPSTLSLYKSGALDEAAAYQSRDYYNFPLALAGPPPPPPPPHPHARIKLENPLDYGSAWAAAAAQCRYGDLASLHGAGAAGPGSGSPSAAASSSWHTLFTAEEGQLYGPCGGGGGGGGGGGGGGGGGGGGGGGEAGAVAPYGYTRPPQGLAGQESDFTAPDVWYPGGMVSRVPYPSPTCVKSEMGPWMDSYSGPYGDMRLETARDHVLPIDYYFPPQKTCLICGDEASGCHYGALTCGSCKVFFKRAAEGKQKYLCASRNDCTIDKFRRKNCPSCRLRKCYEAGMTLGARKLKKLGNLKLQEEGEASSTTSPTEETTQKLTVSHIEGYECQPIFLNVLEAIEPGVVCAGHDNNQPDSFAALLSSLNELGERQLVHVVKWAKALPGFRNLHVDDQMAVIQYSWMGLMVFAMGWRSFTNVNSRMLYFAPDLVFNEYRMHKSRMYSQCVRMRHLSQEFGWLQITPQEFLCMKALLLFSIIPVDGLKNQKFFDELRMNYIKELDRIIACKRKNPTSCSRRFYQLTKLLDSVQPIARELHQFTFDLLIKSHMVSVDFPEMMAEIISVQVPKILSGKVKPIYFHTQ
# Test: Androgen Receptor ELISA assay (PathScan AR ELISA) in VCaP cells: AR degradation, Dmax and DC50
# Type: cell-based
# Summary of the method: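 After 24 h exposure of VCaP cells (charcoal-stripped serum, 0.1 nM R1881 agonist, 0.1% DMSO) to seven half-log compound concentrations, residual AR in lysates was measured by PathScan ELISA (TMB absorbance, 450 nm). Cells were plated at 30,000/well and grown at least 3 days beforehand.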
# [1] = VCaP cells; Table 35; read-out: VCaP DC50
# [2] = VCaP, VCaP cells; Table 35; read-out: VCaP Dmax (%)
# [3] = VCaP cells; Table 36; read-out: VCaP DC50
# [4] = VCaP, VCaP cells; Table 36; read-out: VCaP Dmax (%)
# [5] = read-out: VCaP DC50; VCaP cells; Table 34
smiles,measurement,setting,value
Cc1ncsc1-c1ccc(CNC(=O)[C@@H]2C[C@@H](O)CN2C(=O)[C@@H](NC(=O)COCCNc2ccc(-c3ccc(C(=O)N[C@H]4C(C)(C)[C@H](Oc5ccc(C#N)c(Cl)c5)C4(C)C)cc3)cn2)C(C)(C)C)nc1 [Example 446],DC50,[1],> 501 nM
same,Dmax,[2],26 to 50%
"Cc1ncsc1-c1ccc(CNC(=O)[C@@H]2C[C@@H](O)CN2C(=O)[C@@H](NC(=O)COCCCCCNc2ccc(C(=O)N[C@H]3C(C)(C)[C@H](Oc4ccc(C#N)c(Cl)c4)C3(C)C)cc2F)C(C)(C)C)cc1 [Example 176, (2S,4R)-1-[(2S)-2-[2-({5-[(2-fluoro-4-{[trans-3-(3-chloro-4-cyanophenoxy)-2,2,4,4-tetramethylcyclobutyl]carbamoyl}phenyl)amino]pentyl}oxy)acetamido]-3,3-dimethylbutanoyl]-4-hydroxy-N-{[4-(4-methyl-1,3-thiazol-5-yl)phenyl]methyl} pyrrolidine-2-carboxamide]",Dmax,"VCaP, highest percentage of Androgen Receptor degradation observed, VCaP cells (Table 32); read-out: VCaP Dmax (%)",> 71%
same,DC50,"concentration that caused 50% Androgen Receptor degradation, VCaP cells (Table 32); read-out: VCaP DC50",< 50 nM
"Cc1ncsc1-c1ccc([C@H](C)NC(=O)[C@@H]2C[C@@H](O)CN2C(=O)[C@@H](NC(=O)Cc2ccnc(N3CCN(c4ccc(C(=O)N[C@H]5C(C)(C)[C@H](Oc6ccc(C#N)c(Cl)c6)C5(C)C)cn4)CC3)c2)C(C)(C)C)cc1 [Example 644, N-((1r,3r)-3-(3-chloro-4-cyanophenoxy)-2,2,4,4-tetramethylcyclobutyl)-6-(4-(4-(2-(((S)-1-((2S,4R)-4-hydroxy-2-(((S)-1-(4-(4-methylthiazol-5-yl)phenyl)ethyl)carbam-oyl)pyrrolidin-1-yl)-3,3-dimethyl-1-oxobutan-2-yl)amino)-2-oxoethyl)pyridin-2-yl)piperazin-1-yl)nicotinamide]",DC50,[3],< 50 nM
same,Dmax,[4],> 71%
Cc1ncsc1-c1ccc(CNC(=O)[C@@H]2C[C@@H](O)CN2C(=O)[C@@H](NC(=O)COC/C=C\COCCCCOc2ccc(N3C(=S)N(c4ccc(C#N)c(C(F)(F)F)c4)C(=O)C3(C)C)cc2)C(C)(C)C)cc1 [Example 325],Dmax,"VCaP, read-out: VCaP Dmax (%)",26 to 50%
same,DC50,[5],< 50 nM
CC(C)(C)[C@H](NC(=O)COCCCOCCCCOc1ccc(N2C(=S)N(c3ccc(C#N)c(C(F)(F)F)c3)C(=O)C2(C)C)cc1)C(=O)N1C[C@H](O)C[C@H]1C(=O)NCc1ccc(-c2ocnc2F)cc1 [Example 370],Dmax,"VCaP, read-out: VCaP Dmax (%)",26 to 50%
same,DC50,[5],< 50 nM
"CC(C)[C@@H](C(=O)N1C[C@H](O)C[C@H]1C(=O)NCc1ccc(Cl)cc1N1CCN(CCCc2ccc(C(=O)N[C@H]3C(C)(C)[C@H](Oc4ccc(C#N)c(Cl)c4)C3(C)C)cc2)CC1)N1Cc2ccccc2C1=O [Example 754, (2S,4R)-N-(4-chloro-2-(4-(3-(4-(((1r,3r)-3-(3-chloro-4-cyanophenoxy)-2,2,4,4-tetramethylcyclobutyl)carbamoyl)phenyl)propyl)piperazin-1-yl)benzyl)-4-hydroxy-1-((S)-3-methyl-2-(1-oxoisoindolin-2-yl)butanoyl)pyrrolidine-2-carboxamide]",DC50,[3],> 501 nM
same,Dmax,[4],< 25%
Cc1ncsc1-c1ccc(CNC(=O)[C@@H]2C[C@@H](O)CN2C(=O)[C@@H](C(C)C)n2cc(OCCCOCCCCCOc3ccc(N4C(=S)N(c5ccc(C#N)c(C(F)(F)F)c5)C(=O)C4(C)C)cc3)cn2)nc1 (racemic) [Example 431],Dmax,"VCaP, read-out: VCaP Dmax (%)",< 25%
same,DC50,read-out: VCaP DC50; VCaP cells; Table 35,> 501 nM
Cc1ncsc1-c1ccc(CNC(=O)[C@@H]2C[C@@H](O)CN2C(=O)[C@@H](NC(=O)CNCCNc2ccc(-c3ccc(C(=O)N[C@H]4C(C)(C)[C@H](Oc5ccc(C#N)c(Cl)c5)C4(C)C)cc3)cn2)C(C)(C)C)cc1 [Example 484],DC50,[1],< 50 nM
same,Dmax,[2],51 to 70%
"Cc1ncsc1-c1ccc([C@H](C)NC(=O)[C@@H]2C[C@@H](O)CN2C(=O)[C@@H](NC(=O)COCCN(CCCc2ccc(C(=O)N[C@H]3C(C)(C)[C@H](Oc4ccc(C#N)c(Cl)c4)C3(C)C)nc2)CCC(F)(F)F)C(C)(C)C)cc1 [Example 699, N-((1r,3r)-3-(3-chloro-4-cyanophenoxy)-2,2,4,4-tetramethylcyclobutyl)-5-(3-((2-(2-(((S)-1-((2S,4R)-4-hydroxy-2-(((S)-1-(4-(4-methylthiazol-5-yl)phenyl)ethyl)carbam-oyl)pyrrolidin-1-yl)-3,3-dimethyl-1-oxobutan-2-yl)amino)-2-oxoethoxy)ethyl)(3,3,3-trifluoropropyl)amino)propyl)picolinamide]",DC50,[3],< 50 nM
same,Dmax,"VCaP, read-out: VCaP Dmax (%), VCaP cells; Table 36",26 to 50%
Cc1ncsc1-c1ccc([C@H](C)NC(=O)[C@@H]2C[C@@H](O)CN2C(=O)[C@@H](NC(=O)COCCCCCNc2ccc(C(=O)N[C@H]3C[C@H](Oc4ccc(C#N)c(Cl)c4)C3)cc2)C(C)(C)C)cc1 [Example 496],DC50,[1],< 50 nM
same,Dmax,[2],51 to 70%
CC(C)(C)[C@H](NC(=O)COCCCCCNc1ccc(C(=O)N[C@H]2C(C)(C)[C@H](Oc3ccc(C#N)c(Cl)c3)C2(C)C)cc1)C(=O)N1C[C@H](O)C[C@H]1C(=O)NCc1ccc(-c2cnccn2)cc1 [Example 532],DC50,[1],< 50 nM
same,Dmax,[2],51 to 70%
Cc1ncsc1-c1ccc(CNC(=O)[C@@H]2C[C@@H](O)CN2C(=O)[C@@H](NC(=O)COCCCCCNc2ccc(C(=O)N[C@H]3C(C)(C)[C@H](Oc4ccc(C#N)c(Cl)c4)C3(C)C)cc2)C(C)C)cc1 [Example 537],DC50,[1],< 50 nM
same,Dmax,[2],26 to 50%
"CC(C)(C)[C@H](NC(=O)COCCCCOc1ccc(-c2ccc(N3C(=S)N(c4ccc(C#N)c(Cl)c4)C(=O)C3(C)C)cc2)cc1)C(=O)N1C[C@H](O)C[C@H]1C(=O)NCc1ccc(-c2cncs2)cc1 [Example 111, (2S,4R)-1-[(2S)-2-{2-[4-(4-{4-[3-(3-chloro-4-cyanophenyl)-5,5-dimethyl-4-oxo-2-sulfanylideneimidazolidin-1-yl]phenyl}phenoxy)butoxy]acetamido}-3,3-dimethylbutanoyl]-4-hydroxy-N-{[4-(1,3-thiazol-5-yl)phenyl]methyl}pyrrolidine-2-carboxamide]",Dmax,"VCaP, read-out: VCaP Dmax (%)",> 71%
same,DC50,"read-out: VCaP DC50; concentration that caused 50% Androgen Receptor degradation, VCaP cells (Table 32)",< 50 nM
"Cc1ncsc1-c1ccc([C@H](C)NC(=O)[C@@H]2C[C@@H](O)CN2C(=O)[C@@H](NC(=O)CO[C@H](C)CN2CCN(c3ccc(C(=O)N[C@H]4C(C)(C)[C@H](Oc5ccc(C#N)c(Cl)c5)C4(C)C)cc3)CC2)C(C)(C)C)cc1 [Example 634, (2S,4R)-1-((S)-2-(2-(((R)-1-(4-(4-(((1r,3R)-3-(3-chloro-4-cyanophenoxy)-2,2,4,4-tetramethylcyclobutyl)carbamoyl)phenyl)piper-azin-1-yl)propan-2-yl)oxy)acetamido)-3,3-dimethylbutanoyl)-4-hydroxy-N-((S)-1-(4-(4-methylthiazol-5-yl)phenyl)ethyl)pyrrolidine-2-carboxamide]",DC50,[3],< 50 nM
same,Dmax,[4],> 71%
"CC[C@H](NC(=O)[C@@H]1C[C@@H](O)CN1C(=O)[C@@H](NC(=O)COCCN1CCN(c2ccc(C(=O)N[C@H]3C(C)(C)[C@H](Oc4ccc(C#N)c(Cl)c4)C3(C)C)cn2)CC1)C(C)(C)C)c1ccc(-c2scnc2C)cc1 [Example 649, N-((1r,3r)-3-(3-chloro-4-cyanophenoxy)-2,2,4,4-tetramethylcyclobutyl)-6-(4-(2-(2-(((S)-1-((2S,4R)-4-hydroxy-2-(((S)-1-(4-(4-methylthiazol-5-yl)phenyl)propyl)carbam-moyl)pyrrolidin-1-yl)-3,3-dimethyl-1-oxobutan-2-yl)amino)-2-oxoethoxy)ethyl)pipera-zin-1-yl)nicotinamide]",DC50,[3],< 50 nM
same,Dmax,[4],> 71%
CC(C)c1ncsc1-c1ccc(CNC(=O)[C@@H]2C[C@@H](O)CN2C(=O)[C@@H](NC(=O)COCCCCCNc2ccc(C(=O)N[C@H]3C(C)(C)[C@H](Oc4ccc(C#N)c(Cl)c4)C3(C)C)cc2)C(C)(C)C)cc1 [Example 556],DC50,[1],< 50 nM
same,Dmax,[2],> 71%
Cc1ncsc1-c1ccc(CNC(=O)[C@@H]2C[C@@H](O)CN2C(=O)[C@@H](NC(=O)CO[C@H](C)c2ccc(Oc3ccc(C(=O)N[C@H]4C(C)(C)[C@H](Oc5ccc(C#N)c(Cl)c5)C4(C)C)cc3)cc2)C(C)(C)C)cc1 [Example 405],DC50,VCaP cells; Table 34; read-out: VCaP DC50,< 50 nM
same,Dmax,"VCaP, VCaP cells; Table 34; read-out: VCaP Dmax (%)",> 71%
